Assay results published in patent EP0635494A1, “2-(Imidazol-1-yl)2-benzylethylidene-aminooxyalkyl-hydroxamic acid derivatives” (PHARMACIA S.p.A., priority 1993, dated 1995).

Experiments:
TxA₂ Synthase [1] = target: T1, TxA₂ Synthase (Rattus norvegicus, UniProt P49430); assay: In vitro effects on TxB₂ production in rat whole blood during clotting (TxA₂ synthesis, RIA); assay type: cell-based; details: result in words, compared with reference compound Dazoxiben
T1 construct: Blood was withdrawn from the abdominal aorta of the animals under light ether anesthesia; from tissue; host or cells: rat whole blood (clotting, serum TxB₂ by RIA)
T1 sequence (P49430 1-533): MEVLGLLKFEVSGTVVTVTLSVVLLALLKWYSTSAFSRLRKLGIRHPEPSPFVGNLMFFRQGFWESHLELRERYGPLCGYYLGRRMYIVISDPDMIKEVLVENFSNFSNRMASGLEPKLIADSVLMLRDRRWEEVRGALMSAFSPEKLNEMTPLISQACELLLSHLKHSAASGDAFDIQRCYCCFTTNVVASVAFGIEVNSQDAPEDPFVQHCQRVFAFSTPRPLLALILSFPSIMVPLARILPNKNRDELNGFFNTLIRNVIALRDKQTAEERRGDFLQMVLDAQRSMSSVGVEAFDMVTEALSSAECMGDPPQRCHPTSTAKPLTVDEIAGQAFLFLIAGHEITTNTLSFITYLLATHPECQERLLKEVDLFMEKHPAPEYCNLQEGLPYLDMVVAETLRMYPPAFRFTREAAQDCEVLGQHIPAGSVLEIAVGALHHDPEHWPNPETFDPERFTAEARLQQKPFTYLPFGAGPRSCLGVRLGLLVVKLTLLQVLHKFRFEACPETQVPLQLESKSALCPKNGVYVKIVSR
Method: The compounds of formula (I) were for example tested for their ability to inhibit TxA₂ Synthase activity (as reflected by TxB₂ generated in whole blood during clotting or in isolated glomeruli) in vitro in the rat. The in vitro experiments were carried out as follows: The effect of the compounds on TxA₂ synthesis was evaluated in serum.
Blood was withdrawn from the abdominal aorta of the animals under light ether anesthesia.
Samples were then allowed to clot for 1 h at 37°C, centrifuged at 3000 rpm for 10 min, serum collected and stored at -20°C until assayed. TxB₂ levels were determined by RIA according to previously described procedures [Patrono et al. - Thromb.

TxA₂ receptor = target: T2, TxA₂ receptor (Homo sapiens, UniProt P21731); assay: [³H]-SQ 29,548 binding displacement in washed human platelets (TxA₂ antagonism); details: result in words, compared with Sulotroban (BM 13177)
T2 construct: endogenous in cells; host or cells: washed human platelets from healthy volunteers
T2 sequence (P21731 1-343): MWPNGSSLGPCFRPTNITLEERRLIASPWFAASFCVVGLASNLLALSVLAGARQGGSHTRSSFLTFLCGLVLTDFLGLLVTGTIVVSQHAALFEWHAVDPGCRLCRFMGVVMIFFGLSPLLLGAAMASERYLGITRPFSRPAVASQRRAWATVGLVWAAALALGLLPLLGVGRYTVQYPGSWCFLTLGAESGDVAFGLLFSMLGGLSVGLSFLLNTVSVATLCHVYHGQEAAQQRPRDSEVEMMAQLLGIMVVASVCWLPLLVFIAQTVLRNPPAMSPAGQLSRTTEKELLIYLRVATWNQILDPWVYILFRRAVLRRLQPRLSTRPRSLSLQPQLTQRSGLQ
Method: The experiments were carried out as follows: Blood from healthy volunteers of both sexes who had not taken any medication for at least 10 days was collected into one-tenth volume of acid citrate dextrose containing indomethacin (28 µM). Platelet rich plasma (PRP), obtained by centrifugation of the blood at 200 x g for 20 min, was washed twice (1000 x g for 10 min). The platelets were then resuspended in Tyrode-Hepes buffer (pH 7.4) to a final concentration of 5-10x10⁻⁸ cells/ml and incubated for 0-60 min at 25°C with [³H]-SQ 29,548 (5 nM). For displacement experiments various concentrations (10⁻⁹ -10⁻⁴M) of competing ligands were added and incubated for 30 min at 25°C.
Non-specific binding was determined in the presence of 50 µM U46619 and was approximately 5% of total binding of [³H]-SQ 29,548. After incubation, 4 ml of ice-cold TRIS-HCl buffer (10 mM, pH 7.4) was added to each tube and the reaction mixture was immediately filtered by suction through a Whatman GE/C glass filter disc which was washed 2 times with ice-cold TRIS-HCl (4 ml) and counted for radioactivity by a Packard-β-counter.
The binding data were analyzed by computerized non-linear curve fitting using the Ligand program and expressed as IC₅₀.

TxA₂ Synthase [2] = target: T1, TxA₂ Synthase; details: statement on the known compound, no data shown; cited from earlier work

Compound | inhibitory activity on TxA₂ synthesis (TxA₂ Synthase [1]) | affinity for the receptor (TxA₂ receptor) | TxA₂ synthase inhibitory activity (TxA₂ Synthase [2])
Cc1ccc(CC(/C(=N/OCCCCC(=O)O)C2CCCCC2)n2ccnc2)cc1 (racemic) [FCE 27818, (±)-(E)-5-[2-(4-methylbenzyl)-2-(imidazol-1-yl)-1-cyclohexylethylidene]aminooxypentanoic acid] | marked inhibitory activity on TxA₂ synthesis significantly more potent than that of reference compound Dazoxiben | good affinity for the receptor which is better than that shown by the known compound Sulotroban (BM 13177) | 
O=C(O)COc1ccc(CCNS(=O)(=O)c2ccccc2)cc1 [BM 13177, Sulotroban] |  |  | devoid of TxA₂ synthase inhibitory activity
(±)-(E)-5-[2-benzyl-2-(imidazol-1-yl)-1-cyclohexylethylidene]-aminooxybutanohydroxamic acid [FCE 27790] | marked inhibitory activity on TxA₂ synthesis significantly more potent than that of reference compound Dazoxiben | good affinity for the receptor which is better than that shown by the known compound Sulotroban (BM 13177) | 
